Laboratory results reported in patent publication US7572606B1 (Nereus Pharmaceuticals, Inc., priority 2005, dated 2009).
Several values for one entry are separate records, joined by “and”; a condition that tells them apart may be missing. Equal values may be shown once. Read-outs that look alike come from different tables or passages of the source.

Columns and labels:
[1] = biological target: caspase-like (PGPH) activity of rabbit muscle 20S proteasome (Oryctolagus cuniculus, UniProt A0A5F9DQW2); assay: In vitro inhibition of 20S proteasome, Z-LLE-AMC; settings: purified rabbit 20S proteasome, Z-LLE-AMC
Chain of caspase-like (PGPH) activity of rabbit muscle 20S proteasome (A0A5F9DQW2 1-212): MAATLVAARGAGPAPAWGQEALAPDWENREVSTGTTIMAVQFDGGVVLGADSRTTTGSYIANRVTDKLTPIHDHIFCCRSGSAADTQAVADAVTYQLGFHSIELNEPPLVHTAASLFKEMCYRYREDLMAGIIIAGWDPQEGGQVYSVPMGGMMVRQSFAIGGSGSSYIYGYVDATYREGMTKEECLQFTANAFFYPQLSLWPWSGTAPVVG

[2] = biological target: T1, trypsin-like activity of rabbit muscle 20S proteasome (Oryctolagus cuniculus, UniProt G1SWK8); assay: In vitro inhibition of 20S proteasome, Boc-LRR-AMC; type: biochemical; settings: under the conditions tested
T1 construct: EC50 Trypsin-like; other: purified rabbit 20S proteasome, Boc-LRR-AMC; other: under the conditions tested
T1 sequence (G1SWK8 1-271): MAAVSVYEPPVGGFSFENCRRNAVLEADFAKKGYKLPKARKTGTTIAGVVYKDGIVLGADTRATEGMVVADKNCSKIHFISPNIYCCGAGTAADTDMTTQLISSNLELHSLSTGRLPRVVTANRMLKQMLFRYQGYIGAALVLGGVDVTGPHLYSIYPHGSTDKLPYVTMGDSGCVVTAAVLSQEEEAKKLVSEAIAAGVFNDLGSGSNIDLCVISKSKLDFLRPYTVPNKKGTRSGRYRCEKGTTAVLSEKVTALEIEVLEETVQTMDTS

[3] = test system: NF-κB-mediated luciferase activity in HEK293 NF-κB/Luc cells; assay: NF-κB-mediated luciferase reporter gene assay; type: cell-based, human; settings: for luciferase activity upon TNF-α stimulation: pretreatment of NF-κB/Luc 293 cells; for EC50: Homo sapiens, HEK293, 1 h pretreatment, 6 h TNF-α stimulation, read-out: EC50
Method: The HEK293 NF-κB/luciferase reporter cell line is a derivative of the human embryonic kidney cell line (ATCC; CRL-1573) and carries a luciferase reporter gene under the regulation of 5×NF-κB binding sites. […] When performing the luciferase assay, the DMEM basal medium was replaced with phenol-red free DMEM basal medium and the G418 was omitted.
For NF-κB-mediated luciferase assays, HEK293 NF-κB/luciferase cells were seeded at 1.5×10^4 cells/well in 90 μl phenol-red free DMEM complete medium into Corning 3917 white opaque-bottom tissue culture plates. For Formulae II-2, II-4, II-5A and II-18, a 400 μM starting dilution was made in 100% DMSO and this dilution was used to generate an 8-point half log dilution series. […] For formula II-20, a 2.5 mM or 8 mM starting dilution was made in 100% DMSO and the final test concentrations ranged from 6.3 μM to 2.0 nM or 20 μM to 6.3 nM respectively. The plates were returned to the incubator for 1 hour. After 1 hr pretreatment, 10 μl of a 50 ng/ml TNF-α solution, prepared in the phenol-red free DMEM medium was added, and the plates were incubated for an additional 6 hours.
At the end of the TNF-α stimulation, 100 μl of Steady Lite HTS luciferase reagent (Packard Bioscience) was added to each well and the plates were left undisturbed for 10 min at room temperature before measuring the luciferase activity. The relative luciferase units (RLU) were measured by using a Fusion microplate fluorometer (Packard Bioscience).
NF-κB inducible luciferase activity was measured at 6 hours.

[4] = biological target: T2, chymotrypsin-like activity of rabbit muscle 20S proteasome (Oryctolagus cuniculus, UniProt G1T4Q9); assay: In vitro inhibition of 20S proteasome, suc-LLVY-AMC
T2 sequence (G1T4Q9 1-263): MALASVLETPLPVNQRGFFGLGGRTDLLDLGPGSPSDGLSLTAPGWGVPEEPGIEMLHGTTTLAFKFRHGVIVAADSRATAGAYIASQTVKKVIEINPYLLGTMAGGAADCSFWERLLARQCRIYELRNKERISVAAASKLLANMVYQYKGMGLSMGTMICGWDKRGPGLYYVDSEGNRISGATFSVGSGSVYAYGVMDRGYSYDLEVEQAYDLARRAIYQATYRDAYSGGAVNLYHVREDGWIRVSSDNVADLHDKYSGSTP

[5] = test system: RPMI 8226; assay: Cell growth inhibition, resazurin, 48 h; settings: Homo sapiens, RPMI-8226, 48 h, RPMI 8226, 48 h drug exposure
Method: RPMI 8226 (CCL-155), HT-29 (HTB-38), and B16-F10 (CRL-6475) cells were purchased from ATCC. RPMI 8226 cells were maintained in RPMI 1640 media supplemented with 10% (v/v) FBS, 2 mM L-glutamine, 1 mM sodium pyruvate and Penicillin/Streptomycin at 100 IU/ml and 100 μg/ml, respectively. HT-29 cells were maintained in McCoys 5A supplemented with 10% (v/v) FBS, 2 mM L-glutamine, 1 mM sodium pyruvate, 1% (v/v) non-essential amino acids, 10 mM HEPES and Penicillin/Streptomycin at 100 IU/ml and 100 μg/ml, respectively. B16-F10 cells were maintained in DMEM supplemented with 10% (v/v) FBS, 2 mM L-glutamine, 10 mM HEPES and Penicillin/Streptomycin at 100 IU/ml and 100 μg/ml, respectively.
RPMI 8226 cells were seeded at 2×10^4 cells/well in 90 μl RPMI media containing 10% (v/v) FBS or 1% (v/v) FBS into 96 well black-walled, clear-bottom tissue culture plates. […] Formulae II-16, II-17 and Formula II-18 were serially diluted in media containing 1% or 10% FBS and added in triplicate to the test wells. […] The final concentration of Formula II-18 ranged from 2 μM to 630 pM.

[6] = test system: U266; assay: Cell growth inhibition, resazurin, 48 h; type: cell-based, human; settings: U266, 48 h drug exposure
[7] = test system: HL-60/MX2; assay: Cell growth inhibition, resazurin, 48 h; settings: HL-60/MX2, 48 h drug exposure
Method: The DNA binding agent Mitoxantrone was included as a control, as HL-60/MX2 cells are reported to be resistant to this chemotherapeutic agent (Harker W. G. et al. 1989).
(§1) Concentrations ranging from 6.32 μM to 2 nM were tested for II-2 and II-4.

[8] = test system: 20S proteasome chymotrypsin-like activity in RPMI 8226 cells; assay: Chymotrypsin-like activity of 20S proteasomes in treated cells; type: cell-based, human; settings: 1 hr, mean ± SD, n = 3
Method: RPMI 8226 (ATCC, CCL-155), the human multiple myeloma cell line, was cultured in RPMI 1640 medium supplemented with 2 mM L-glutamine, 100 units/ml penicillin, 100 μg/ml streptomycin, 1 mM sodium pyruvate and 10% heat inactivated fetal bovine serum at 37° C., 5% CO2 and 95% humidified air. […] DMSO was used as the vehicle control at a final concentration of 0.1%. Following 1 hr incubation of RMPI 8226 cells with the compounds, the cells were pelleted by centrifugation at 2,000 rpm for 10 sec at room temperature and washed 3× with ice-cold 1×Dulbecco's Phosphate-Buffered Saline (DPBS, Mediatech, Herndon, Va.). DPBS washed cells were lysed on ice for 15 min in lysis buffer (20 mM HEPES, 0.5 mM EDTA, 0.05% Triton X-100, pH 7.3) supplemented with protease inhibitor cocktail (Roche Diagnostics, Indianapolis, Ind.). Cell debris was pelleted by centrifugation at 14,000 rpm for 10 min, 4° C. and supernatants (=cell lysates) were transferred to a new tube. Protein concentration was determined by the BCA protein assay kit (Pierce Biotechnology, Rockford, Ill.). […] The total amount of protein used for each assay was 20 μg. The final concentration of Suc-LLVY-AMC and DMSO was 20 μM and 0.2%, respectively.

[9] = test system: MES-SA/Dx5; assay: Cell growth inhibition, resazurin, 48 h; settings: human, 48 h
Method: as §1

[10] = read-out: EC50 Caspase-like (PGPH)

Structure (SMILES)	EC50 ([1]; read-out: EC50 Caspase-like)	inhibition of the trypsin-like activity of the 20S proteasome [2]	luciferase activity upon TNF-α stimulation [3]	also measured
CC12OC(=O)C1(C(=O)C1C=CCCC1)NC(=O)C2CCCl (stereo not drawn) [Formula II-13C]	> 20000 nM	able to inhibit the trypsin-like activity	–	–
C[C@@]12OC(=O)[C@]1([C@@H](O)[C@@H]1C=CCCC1)NC(=O)[C@@H]2CCO [Formula II-21]	2300 nM	able to inhibit the trypsin-like activity	dose-dependent decrease of luciferase activity	EC50 [1, 10]: 2580 nM and 2330 nM
CCC(=O)OCC[C@H]1C(=O)N[C@@]2([C@@H](O)[C@@H]3C=CCCC3)C(=O)O[C@@]12C [Formula II-22]	1400 nM	able to inhibit the trypsin-like activity	dose-dependent decrease of luciferase activity	–
CC[C@@]12OC(=O)[C@]1([C@@H](O)[C@@H]1C=CCCC1)NC(=O)[C@@H]2CCCl [Formula II-24C]	> 20000 nM	able to inhibit the trypsin-like activity	dose-dependent decrease of luciferase activity	EC50 ([4]; read-out: EC50 Chymotrypsin-like, purified rabbit 20S proteasome, suc-LLVY-AMC): 2200 nM
C[C@@]12OC(=O)[C@]1([C@H](O)[C@@H]1C=CCCC1)NC(=O)[C@@H]2CCCl [Formula II-25]	–	–	–	EC50 [5]: > 20000 nM; EC50 ([6]; Homo sapiens, U-266, 48 h): > 20000 nM; EC50 [3]: > 20000 nM
C[C@@]12OC(=O)[C@]1([C@@H](O)[C@@H]1C=CCCC1)NC(=O)[C@H]2CCCl [Formula II-26]	–	able to inhibit the trypsin-like activity	dose-dependent decrease of luciferase activity	–
C[C@@H]1C(=O)N[C@@]2([C@@H](O)[C@@H]3C=CCCC3)C(=O)O[C@@]12C [Formula II-28]	> 20000 nM	–	–	–
C[C@@]12OC(=O)[C@]1([C@@H](O)[C@@H]1C=CCCC1)NC(=O)[C@@H]2CCN=[N+]=[N-] [Formula II-29]	–	able to inhibit the trypsin-like activity	dose-dependent decrease of luciferase activity	EC50 [1, 10]: 535 nM and 520 nM
CCC[C@H]1C(=O)N[C@@]2([C@@H](O)[C@@H]3C=CCCC3)C(=O)O[C@@]12C [Formula II-30]	1300 nM	able to inhibit the trypsin-like activity	dose-dependent decrease of luciferase activity	EC50 [1, 10]: 956 nM
C[C@@]12OC(=O)[C@]1(C(=O)C1=CC(O)CCC1)NC(=O)[C@]2(C)CCCl (stereo partly drawn) [Formula II-31]	–	–	–	EC50 [4]: > 20000 nM
COC(=O)CCSC(=O)[C@]1([C@@H](O)[C@@H]2C=CCCC2)NC(=O)[C@H](CCCl)[C@]1(C)O [Formula II-44]	1400 nM	able to inhibit the trypsin-like activity	dose-dependent decrease of luciferase activity	–
C[C@@]12OC(=O)[C@]1([C@@H](O)[C@H]1CCC[C@H](Cl)[C@H]1O)NC(=O)[C@@H]2CCCl [Formula IV-3C]	> 20000 nM	–	–	EC50 [5]: > 20000 nM; EC50 ([6]; Homo sapiens, U-266, 48 h, read-out: EC50): 7760 nM; EC50 ([6]; read-out: EC50): 8290 nM; EC50 [3]: > 20000 nM
COC(=O)CCSC(=O)C1(C(O)C2C=CCCC2)NC(=O)C2CCOC21C (stereo not drawn) [Formula VI-1A]	7900 nM and 8700 nM	able to inhibit the trypsin-like activity	–	–
O=C1c2c(O)ccc(O)c2C(=O)c2c(NCCNCCO)ccc(NCCNCCO)c21 [Mitoxantrone, reference compound]	–	–	–	EC50 [7]: 827 nM and 1340 nM and 1170 nM; EC50 ([7]; Homo sapiens, HL60/MX2, 48 h): 1410 nM
CC(C)[C@H](O)[C@@]12NC(=O)[C@H](C)[C@@H]1OC2=O [Omuralide, reference compound]	–	–	–	% inhibition of the chymotrypsin-like activity of 20S proteasomes in RPMI 8226 cell lysates ([8]; 1 nM): 5 ± 9%; % inhibition of the chymotrypsin-like activity of 20S proteasomes in RPMI 8226 cell lysates ([8]; 5 nM): 8 ± 9%; % inhibition of the chymotrypsin-like activity of 20S proteasomes in RPMI 8226 cell lysates ([8]; 10 nM): 4 ± 9%; % inhibition of the chymotrypsin-like activity of 20S proteasomes in RPMI 8226 cell lysates ([8]; 50 nM): 17 ± 11%; % inhibition of the chymotrypsin-like activity of 20S proteasomes in RPMI 8226 cell lysates ([8]; 100 nM): 32±8%; % inhibition of the chymotrypsin-like activity of 20S proteasomes in RPMI 8226 cell lysates ([8]; 500 nM): 68 ± 11%; % inhibition of the chymotrypsin-like activity of 20S proteasomes in RPMI 8226 cell lysates ([8]; 1,000 nM): 80 ± 8%; % inhibition of the chymotrypsin-like activity of 20S proteasomes in RPMI 8226 cell lysates ([8]; 10,000 nM): 93 ± 1%
CC(=O)O[C@H]1C(=O)[C@@]2(C)[C@H]([C@H](OC(=O)c3ccccc3)[C@]3(O)C[C@H](OC(=O)[C@H](O)[C@@H](NC(=O)c4ccccc4)c4ccccc4)C(C)=C1C3(C)C)[C@]1(OC(C)=O)CO[C@@H]1C[C@@H]2O [Paclitaxel, reference compound]	–	–	–	% cytotoxicity [9]: 78 ± 1%
